B1: SSI: streptomyces subtilisin inhibitor (protein, UniProt P01006 32-144, looked up)
Subtilisin inhibitor: DAPSALYAPSALVLTVGKGVSATTAAPERAVTLTCAPGPSGTHPAAGSACADLAAVGGDLNALTRGEDVMCPMVYDPVLLTVDGVWQGKRVSYERVFSNECEMNAHGSSVFAF

test system: F. arborescens protease; type: biochemical, Flavobacterium arborescens

Row | Molecule | Activity of protease in presence of inhibitor [units] | Effect of inhibitor on protease activity (in words)
1 | O=S(=O)(F)Cc1ccccc1 [PMSF, phenylmethyl sulfonyl fluoride] | 1.9 | no effect
2 | O=C(O)CN(CCN(CC(=O)O)CC(=O)O)CC(=O)O [EDTA, ethylenediamine tetraacetate] | 4.1 | –
3 | CCN1C(=O)C=CC1=O [NEM, N--ethyl maleimide] | 2.0 | –
4 | B1 | 1.6 | strongly inhibited
